One block for each molecule: values may come before it.
What was measured:
in vivo = experiment: in vivo; parameters: species or system male rats; conditions: rat, po
Method: The test compound suspended in 0.5% methylcellulose was orally administered to male rats at a dose of 100 or 32 mg/kg/day for 2 weeks.

H. pylori FP 1757 [1] = experiment: In vitro anti-microbial activity against Helicobacter pylori (two-fold agar plate dilution method); type: cell-based; conditions: FP1757, 72 h, test strain H. pylori FP 1757, Brucella agar with 7% horse blood, 37° C., 3 days, 10% CO2
H. pylori FP 1757 [2] = experiment: Therapeutic effects in mouse model (H. pylori infection, eradication); type: in vivo, male ICR mice; conditions: 0.32 mg/kg/time, oral, twice per day for 4 days; mice sacrificed 2 weeks after final administration
Method: 1.5 ml of approx. 10^8 cfu/ml of H. pylori FP 1757 was orally infected into 4 weeks old male ICR mice (Nippon SLC, Hamamatsu, Japan) which had been fasted overnight. […] The test compound was suspended in 0.5% methylcellulose and administered to the mice. The mice were sacrificed at 2 weeks after the final administration and the gastric mucosa was scraped and homogenized in 1 ml of 0.1 M phosphate buffered saline. 0.1 ml aliquots were inoculated onto Brucella agar plate containing 3% horse serum, 2% starch and antibiotics. All plates were incubated at 37° C. under 10% CO2 for 4 or 5 days. Colonies grown on the plate were counted, and the therapeutic effect was evaluated.

SMILES: NC(=O)Cc1csc(SC2=C(C(=O)O)N3C(=O)[C@@H](NC(=O)Cc4ccccc4)[C@H]3SC2)n1 [Example 14, 7β-(2-Phenylacetamido)-3-(4-carbamoylmethylthiazol-2-yl)thio-3-cephem-4-carboxylic acid]
NOAEL at 336 h (in vivo): 100 mg/kg/day

MIC (H. pylori FP 1757 [1]): < 0.02 µg/mL
SMILES: NCc1nnc(SC2=C(C(=O)O)N3C(=O)[C@@H](NC(=O)Cc4ccccc4)[C@H]3SC2)s1.O=C(O)C(F)(F)F [Example 24, 7β-(2-phenylacetamido)-3-(5-aminomethyl-1,3,4-thiadiazol-2-yl)thio-3-cephem-4-carboxylic acid trifluoroacetic acid salt]

SMILES: O=C(O)Cc1csc(SC2=C(C(=O)O)N3C(=O)[C@@H](NC(=O)Cc4cccs4)[C@H]3SC2)n1 [Example 72, 7β-[2-(2-Thienyl)acetamido]-3-(4-carboxymethylthiazol-2-yl)thio-3-cephem-4-carboxylic acid]
eradication (H. pylori FP 1757 [2]): > 80%

Reference: patent US6150351A, “Cephem compounds and pharmaceutical use thereof” (Fujisawa Pharmaceutical Co., Ltd., priority 1996, dated 2000)
